Test results published in patent publication US20180194967A1, “ANTIMICROBIAL PEPTIDE AMPHIPHILE COATINGS” (priority 2017, published 2018).
Where a SMILES comes first, the peptide text is derived from it. Bridges are numbered along the chain shown (N, C = ends). [ ]: non-standard residue; d: D form. The star is where a group is joined. d2Nal = N[C@H](Cc1ccc2ccccc2c1)C(=O)O; Palmitoyl = CCCCCCCCCCCCCCCC(=O)*

Experiment: Coating thickness by optical profilometry
Assay type: physicochemical
Conditions: submersion coating on PVC-coated glass slide
Protocol: For surface topology studies, PVC powder was purchased and dissolved in 3:2 cyclopentanone:tetrahydrofuran at a concentration of 10 mg/mL. PVC solution (50 μL) was used to spin-coat 1 cm diameter glass slides for 1 minute at 3,000 RPM. The PVC-coated slides were allowed to dry for 24 hours prior to submersion coating in 2 mL AMPA solutions. Coated products were removed from submersion and dried in 24-well plates under aseptic conditions for at least 24 hours prior to characterization. The coating was assessed via contact angle to evaluate surface hydrophilicity and optical profilometry to measure coating thickness. […] Electron microscopy of the AMPA coatings has shown no presence of micelles.

coating thickness: approximately 30 nm
SMILES: CCCCCCCCCCCCCCCC(=O)NCCCC[C@H](NC(=O)[C@H]1CCCN1C(=O)[C@H](NC(=O)[C@@H]1CCCCNC(=O)C[C@H](NC(=O)[C@@H](NC(=O)[C@H](CCCNC(=N)N)NC(=O)[C@@H](NC(=O)[C@H](CCCNC(=N)N)NC(=O)[C@@H](NC(=O)[C@H](CCCNC(=N)N)NC(=O)[C@@H](N)Cc2ccccc2)[C@@H](C)CC)C(C)C)C(C)C)C(=O)N[C@@H](CCCNC(=N)N)C(=O)N[C@@H](CCCNC(=N)N)C(=O)N[C@H](Cc2ccc3ccccc3c2)C(=O)N[C@@H](Cc2ccccc2)C(=O)N[C@@H](Cc2c[nH]c3ccccc23)C(=O)N[C@@H](CCCNC(=N)N)C(=O)N1)C(C)C)C(N)=O [AB01-KPalm, FRIRVRV[DRR-dNal(2′)-FWRK]dV-Dp [SEQ. ID. NO. 1]-K(Palm)] (H-FRIRVRVDRR[d2Nal]FWRK[dV][dP]K(Palmitoyl)-NH2; lactam 8-15; N-terminus and C-terminus assumed)
